Assay results taken from patent publication US12383479B2 (LG HOUSEHOLD & HEALTH CARE LTD., priority 2021, dated 2025).
Values after ≈ are worked out from the molar mass of the structure shown.

How the values were obtained:
[1] = 25° C.; cited from earlier work
[2] = Experimental Example 1: solubility of palmitoylethanolamide in each polyol solvent; type: physicochemical; conditions: 25° C. for 24 hours
Source text: Polyols representatively used as solvents of cosmetics were chosen, which were propanediol, glycerin, […], 2,3-butanediol, pentylene glycol, dipropylene glycol, propylene glycol, butylene glycol, ethoxydiglycerol, and 1,2-hexanediol.

[3] = Experimental Example 2: solubility of palmitoylethanolamide with combined use of selected solvents and 2,3-butanediol; type: physicochemical; conditions: 1 wt % palmitoylethanolamide, 25° C. for 4 weeks, regardless of weight ratio
[4] = 0.5 wt % and 1 wt % palmitoylethanolamide

**Q.** Which water solubility [1] does the source give for CCCCCCCCCCCCCCCC(=O)NCCO [palmitoylethanolamide, N-(2-hydroxyethyl)hexadecanamide] here?
**A.** 0.4431 µg/mL (≈ 1.48 µM)

**Q.** And the “solubility in 1,2-hexanediol” value [2, 4]?
**A.** good solubility

**Q.** And the “solubility in pentylene glycol” value [2, 4]?
**A.** good solubility

**Q.** And the “solubility in the remaining polyols” value ([2]; propanediol, glycerin, ethanol, 2,3-butanediol, dipropylene glycol, propylene glycol, butylene glycol, ethoxydiglycerol, 0.5 and 1 wt %)?
**A.** precipitation

**Q.** And the “solubility in 1,2-hexanediol combined with 2,3-butanediol” value [3]?
**A.** dissolved

**Q.** What about the “solubility in pentylene glycol combined with 2,3-butanediol” value [3] of the same compound?
**A.** dissolved
